Laboratory results as given in PubChem BioAssay (NCI).
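Step 1: Grow cells in 96-well plates. Step 2: Expose to compound for 48 hours at 5 concentrations. Step 3: Interpolate endpoints linearly; if unreached, use highest concentration. TGI: total growth inhibition.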

Key:
Assay in all cases: DTP human tumour cell line panel, 48 h
[1] = test system: 786-0 renal
[2] = test system: A498 renal
[3] = test system: A549 NSCLC
[4] = test system: ACHN renal
[5] = test system: BT-549 breast
[6] = test system: CAKI-1 renal
[7] = test system: CCRF-CEM leukemia
[8] = test system: COLO 205 colon
[9] = test system: DU-145 prostate
[10] = test system: EKVX NSCLC
[11] = test system: HCC-2998 colon
[12] = test system: HCT-116 colon
[13] = test system: HCT-15 colon
[14] = test system: HL-60(TB) leukemia
[15] = test system: HOP-62 NSCLC
[16] = test system: HOP-92 NSCLC
[17] = test system: HS 578T breast
[18] = test system: HT29 colon
[19] = test system: IGROV1 ovarian
[20] = test system: K-562 leukemia
[21] = test system: KM12 colon
[22] = test system: LOX IMVI melanoma
[23] = test system: M14 melanoma
[24] = test system: MALME-3M melanoma
[25] = test system: MCF7 breast
[26] = test system: MDA-MB-231 breast
[27] = test system: MDA-MB-435
[28] = test system: MDA-N
[29] = test system: MOLT-4 leukemia
[30] = test system: NCI-H226 lung
[31] = test system: NCI-H23 lung
[32] = test system: NCI-H460 lung
[33] = test system: NCI-H522 lung
[34] = test system: NCI/ADR-RES ovarian
[35] = test system: OVCAR-3 ovarian
[36] = test system: OVCAR-4 ovarian
[37] = test system: OVCAR-5 ovarian
[38] = test system: OVCAR-8 ovarian
[39] = test system: PC-3 prostate
[40] = test system: RPMI-8226 leukemia
[41] = test system: RXF 393 renal
[42] = test system: SF-268 CNS
[43] = test system: SF-295 CNS
[44] = test system: SF-539 CNS
[45] = test system: SK-MEL-2 melanoma
[46] = test system: SK-MEL-28 melanoma
[47] = test system: SK-MEL-5 melanoma
[48] = test system: SK-OV-3 ovarian
[49] = test system: SN12C renal
[50] = test system: SNB-19 CNS
[51] = test system: SNB-75 CNS
[52] = test system: SR leukemia
[53] = test system: SW-620 colon
[54] = test system: T-47D breast
[55] = test system: TK-10 renal
[56] = test system: U251 CNS
[57] = test system: UACC-257 melanoma
[58] = test system: UACC-62 melanoma
[59] = test system: UO-31 renal

With `O=C(CC(=O)Nc1ccccc1Cl)NNC(c1cc(N=Nc2ccc(Br)cc2)ccc1O)P(O)O` (stereo not drawn) as the molecule, how does the TGI [1] read?
Its TGI is > 10 µM.

What about the TGI [2] of the same molecule?
Its TGI is 7.87 µM.

And the TGI [3]?
The TGI was > 10 µM.

And the TGI [4]?
Its TGI is > 10 µM.

What about the TGI [5] of the same molecule?
The TGI was > 10 µM.

And the TGI [6]?
Its TGI is 6.71 µM.

What about the TGI [7] of the same molecule?
The TGI was 9.58 µM.

What about the TGI [8] of the same molecule?
The TGI was > 10 µM.

And the TGI [9]?
Its TGI is > 10 µM.

What about the TGI [10] of the same molecule?
Its TGI is > 10 µM.

What about the TGI [11] of the same molecule?
Its TGI is > 10 µM.

And the TGI [12]?
Its TGI is 0.964 µM.

What about the TGI [13] of the same molecule?
Its TGI is > 10 µM.

What about the TGI [14] of the same molecule?
The TGI was 1.18 µM.

What about the TGI [15] of the same molecule?
The TGI was > 10 µM.

What about the TGI [16] of the same molecule?
Its TGI is > 10 µM.

And the TGI [17]?
The TGI was > 10 µM.

And the TGI [18]?
The TGI was > 10 µM.

And the TGI [19]?
The TGI was > 10 µM.

What about the TGI [20] of the same molecule?
Its TGI is 6.78 µM.

What about the TGI [21] of the same molecule?
The TGI was > 10 µM.

And the TGI [22]?
Its TGI is 9.51 µM.

What about the TGI [23] of the same molecule?
Its TGI is 2.72 µM.

And the TGI [24]?
The TGI was > 10 µM.

What about the TGI [25] of the same molecule?
Its TGI is > 10 µM.

What about the TGI [26] of the same molecule?
Its TGI is > 10 µM.

And the TGI [27]?
Its TGI is > 10 µM.

And the TGI [28]?
The TGI was > 10 µM.

What about the TGI [29] of the same molecule?
Its TGI is > 10 µM.

What about the TGI [30] of the same molecule?
The TGI was 6 µM.

And the TGI [31]?
The TGI was > 10 µM.

What about the TGI [32] of the same molecule?
Its TGI is > 10 µM.

And the TGI [33]?
Its TGI is > 10 µM.

And the TGI [34]?
The TGI was > 10 µM.

What about the TGI [35] of the same molecule?
Its TGI is > 10 µM.

And the TGI [36]?
Its TGI is > 10 µM.

And the TGI [37]?
Its TGI is > 10 µM.

What about the TGI [38] of the same molecule?
Its TGI is 3.57 µM.

And the TGI [39]?
Its TGI is > 10 µM.

And the TGI [40]?
The TGI was > 10 µM.

What about the TGI [41] of the same molecule?
The TGI was > 10 µM.

What about the TGI [42] of the same molecule?
Its TGI is > 10 µM.

And the TGI [43]?
The TGI was > 10 µM.

What about the TGI [44] of the same molecule?
The TGI was 5.89 µM.

What about the TGI [45] of the same molecule?
Its TGI is > 10 µM.

And the TGI [46]?
The TGI was > 10 µM.

And the TGI [47]?
Its TGI is 4.96 µM.

What about the TGI [48] of the same molecule?
The TGI was > 10 µM.

And the TGI [49]?
Its TGI is > 10 µM.

What about the TGI [50] of the same molecule?
Its TGI is > 10 µM.

And the TGI [51]?
Its TGI is 9.72 µM.

What about the TGI [52] of the same molecule?
Its TGI is > 10 µM.

And the TGI [53]?
The TGI was > 10 µM.

What about the TGI [54] of the same molecule?
Its TGI is > 10 µM.

What about the TGI [55] of the same molecule?
The TGI was > 10 µM.

And the TGI [56]?
Its TGI is > 10 µM.

What about the TGI [57] of the same molecule?
Its TGI is > 10 µM.

And the TGI [58]?
The TGI was 6.12 µM.

And the TGI [59]?
The TGI was > 10 µM.

Which results are given for `CC(C)(Cl)C(Cl)CC/C(CBr)=C(\Cl)CCl` (stereo not drawn)?
TGI [1]: 6.5 µM; TGI [2]: 35.3 µM; TGI [3]: 34.1 µM; TGI [4]: 28.3 µM; TGI [5]: 3.63 µM; TGI [6]: 9.92 µM; TGI [7]: 2.95 µM; TGI [8]: 11.1 µM; TGI [9]: 26.7 µM; TGI [10]: 31.8 µM; TGI [11]: 27.7 µM; TGI [12]: 8.74 µM; TGI [13]: 4.35 µM; TGI [14]: 4.65 µM; TGI [15]: 26 µM; TGI [16]: 23.7 µM; TGI [17]: 25.3 µM; TGI [18]: 14.7 µM; TGI [19]: 4.66 µM; TGI [20]: 17.1 µM; TGI [21]: 19.5 µM; TGI [22]: 1.35 µM; TGI [23]: 3.61 µM; TGI [24]: 20.2 µM; TGI [25]: 32.1 µM; TGI [26]: 7.28 µM; TGI [27]: 8.56 µM; TGI [28]: 5.26 µM; TGI [29]: 2.63 µM; TGI [30]: 15.3 µM; TGI [31]: 14.4 µM; TGI [32]: 28 µM; TGI [33]: 1.88 µM; TGI [34]: 34 µM; TGI [35]: 12.2 µM; TGI [36]: 7.45 µM; TGI [37]: 28.3 µM; TGI [38]: 12.6 µM; TGI [39]: 20 µM; TGI [40]: 4.59 µM; TGI [41]: 23 µM; TGI [42]: 29.1 µM; TGI [43]: 30.6 µM; TGI [44]: 15.5 µM; TGI [45]: 5.32 µM; TGI [46]: 8.84 µM; TGI [47]: 6.58 µM; TGI [48]: 17.9 µM; TGI [49]: 9.47 µM; TGI [50]: 32.7 µM; TGI [51]: 14.1 µM; TGI [52]: 3.31 µM; TGI [53]: 4.12 µM; TGI [54]: 3.88 µM; TGI [55]: 27.7 µM; TGI [56]: 16.2 µM; TGI [57]: 14 µM; TGI [58]: 3.79 µM; TGI [59]: 17 µM
